Test results: a melting point compilation (Tetko et al.)

Details: a range is the spread between reports

Compound	melting point
O=C(O)Cc1ccc(Br)cc1	116 to 117 °C
OCCCCCCCCCCCCO	81.3 to 83 °C
CCCCCCCCCCCCCC(=O)OC	18 to 19 °C
O=C(O)CCCCCc1ccccc1	18 to 23 °C
c1cc2c3c(cccc3c1)CC2	93.4 to 95 °C
O=C(O)c1ccc([N+](=O)[O-])cc1Cl	139 to 142 °C
Nc1c(Cl)c(Cl)c(Cl)c(Cl)c1Cl	232 to 235 °C
NS(=O)(=O)c1ccccc1	151 to 153 °C
O=Cc1cccc(Cl)c1	17 to 18 °C
CC1=NS(=O)(=O)c2cc(Cl)ccc2N1	327 to 330 °C
CCC#N	-93 to -92 °C
CCCC#N	-112 °C
O=[N+]([O-])c1ccc(N=C=S)cc1	108 to 111 °C
CC(C)(C(=O)O)c1ccccc1	79 to 81 °C
Cc1cc(C=O)c(C)n1-c1ccccc1	88.5 to 89 °C
COc1ccc(Cl)cc1N	82 to 83 °C
CC(c1ccccc1)c1ccccc1	-18 to -17.9 °C
Clc1cccc(Cl)c1	-25 to -24.8 °C
CCCCCCCCCCCC(=O)O	43.2 to 45 °C
CC(C)(C)OOC(=O)c1ccccc1	7 to 8 °C
O=C1NC(=O)c2c1cccc2[N+](=O)[O-]	214 to 219 °C
CCCCCCCCCCC1CCCCC1	-2 to -1.7 °C
O=C1OC2(c3ccc(O)cc3Oc3cc(O)ccc32)c2ccccc21	315 to 320 °C
O=C(O)c1cccc(I)c1	187 to 188 °C

Compound	melting point
ClC1=C(Cl)[C@]2(Cl)[C@@H]3[C@@H]4C[C@@H]([C@H]5O[C@@H]45)[C@@H]3[C@@]1(Cl)C2(Cl)Cl	175 to 176 °C
CCCCCCCCCCI	-16.3 to -16 °C
Oc1ccccc1Br	5 to 5.6 °C
CCCCCCCCCc1ccc(O)cc1	42 to 45 °C
Nc1c(Cl)ccc(Cl)c1C(=O)O	152 to 155 °C
CC(C)=CC=C(C)C	12 to 13 °C
O=C(O)Cc1sc(-c2ccccc2)nc1-c1ccc(Cl)cc1	161 to 162 °C
CCc1ccc(C)c(C)c1	-67 to -66.9 °C
CC1(C)C(=O)N(Cl)C(=O)N1Cl	132 to 135 °C
Nc1ccccc1	-6.3 to -6 °C
COC(=O)NN	72 to 73 °C
CCNc1ccc([N+](=O)[O-])cc1	96 to 97 °C
CCN1C(=O)c2ccccc2C1=O	76 to 79 °C
CC(=O)/C=C/c1ccccc1	40 to 42 °C
O=C(NCc1ccccc1)c1ccccc1	105 to 106 °C
O=C(O)c1ccccc1-c1c2cc(Br)c(=O)c(Br)c-2oc2c(Br)c(O)c(Br)cc12	296 to 300 °C
O=C(O)c1cccs1	128 to 130 °C
CC(=O)Nc1ccccc1Cl	87 to 89 °C
Cc1ccc(N)cc1F	31 to 33 °C
COc1ccccc1Br	2 to 3 °C
CC(=O)NC(=O)CN	138 to 142 °C
O=Cc1ccc[nH]1	43 to 46.5 °C
Cc1ccc(C(=O)c2ccc(C)cc2)cc1	94 to 96.5 °C
Cc1n[nH]c(=S)[nH]c1=O	218 to 220 °C

Compound	melting point
COc1cc(C=O)cc(OC)c1	46 to 47 °C
CC(C)(C)CC(=O)O	6 to 6.5 °C
NNc1c(F)c(F)c(F)c(F)c1F	75 to 76 °C
N[C@@H](Cc1c[nH]cn1)C(=O)O	282 to 287 °C
COc1ccccc1C(=O)O	99 to 101 °C
OCCCl	-67.5 to -63 °C
C=C(C)CCC(=C)C	-75.6 to -75 °C
CCCCCCCCCCCCCCC(C)O (centres undefined)	44 to 47 °C
COc1cccc(OC)c1O	54 to 56.5 °C
ClCC(Cl)(Cl)Cl	-70.2 to -70 °C
Brc1ccc(Br)cc1	87 to 88 °C
BrC1c2ccccc2-c2ccccc21	103 to 104 °C
Cc1ccc(O)c(C)c1	22 to 27 °C
CC(=O)Nc1ccc(C(=O)O)cc1	256 to 260 °C
COC(=O)c1ccc(N)cc1	110 to 114 °C
O=S(=O)(F)F	-136 °C
c1cc2c3c(c1)CCCN3CCC2	35 to 40 °C
CC(=O)c1cccc(Br)c1	7.5 to 8 °C
c1ccc(Cc2ccccn2)cc1	10 to 12.5 °C
N#Cc1ccc(N)cc1	84 to 85 °C
CCS(=O)(=O)CC	72 to 73.5 °C
COC(=O)c1ccc(O)cc1	127 to 131 °C
NC(CC(=O)O)C(=O)O (centres undefined)	270 to 275 °C
CCC(Br)CBr (centres undefined)	-65.4 to -65 °C

Compound	melting point
Fc1ccc(Br)cc1	-17.4 to -16 °C
Nc1nccs1	90 to 93 °C
CCOC(=O)c1cccnc1	8.5 to 9 °C
Oc1ccc(-c2ccccc2)cc1	165 to 167 °C
CC(C)c1ccccc1Cl	-74.4 to -74 °C
CC1(C)CC(C)(c2ccccc2)c2ccccc21 (centres undefined)	50 to 52.5 °C
C=CCOc1nc(OCC=C)nc(OCC=C)n1	26 to 27 °C
O=C(OC(=O)c1ccccc1)c1ccccc1	42 to 42.5 °C
COC(=O)c1cc(Cl)ccc1O	46 to 50 °C
O=C(O)Cc1ccc(F)cc1	83 to 86 °C
Nn1cnnc1	82.5 to 86 °C
CC(=O)C(=O)O	11 to 13.8 °C
O=S(=O)(Cl)c1ccc(Cl)cc1	51 to 52 °C
CCC(C(C)C)C(C)C	-122 °C
O=C1c2ccccc2C(=O)C1c1ccccc1	150 °C
Cc1cccc(C)c1	-48 to -47 °C
C=CCn1c(=O)n(CC=C)c(=O)n(CC=C)c1=O	20.5 to 24 °C
O=C(Oc1ccccc1)c1ccccc1C(=O)Oc1ccccc1	73 to 75 °C
CN(C)Cc1cc(C(C)(C)C)c(O)c(C(C)(C)C)c1	91 to 93.5 °C
CCc1ccc(Cl)cc1	-63 to -62.6 °C
CC(C)C(O)C(C)(C)C (centres undefined)	-13 to -11 °C
NCc1cccnc1	-21.1 to -21 °C
CC(=O)c1ccc2ccccc2c1O	99 to 101 °C
CCc1cc(C)ccc1C	-54 to -53.7 °C

Compound	melting point
CC1(C)COC(=O)C1O (centres undefined)	90 to 92 °C
CC1(C)OC(=O)NC1=O	76.5 to 79 °C
C=C=C(C)C	-114 °C
CCCCCCC(C)=O	-21 to -16 °C
O=C(O)Cc1cccc([N+](=O)[O-])c1	118 to 119 °C
COc1cc(C(=O)O)ccc1O	212 to 214 °C
CCCCCCCCCCCCCCCCC	21 to 22 °C
Oc1ccc(O)cc1	170 to 175 °C
COc1ccc2c3c1O[C@H]1[C@@H](O)C=C[C@H]4[C@@H](C2)N(C)CC[C@@]341	155 to 158 °C
CCC(C)(O)C#CC(C)(O)CC (centres undefined)	53 to 54 °C
CCCCCCCCCCCCCC(N)=O	104 to 106 °C
O=C1C=CC(=O)C2C3C=CC(C3)C12 (centres undefined)	73 to 77.5 °C
CCC=O	-81 to -80 °C
CC(CO)(CO)C(=O)O	189 to 190 °C
Cc1cnccn1	-30 to -29 °C
Oc1c(F)cccc1F	38 to 39.5 °C
Nc1cc(Cl)ccc1Cl	48 to 50 °C
O=Cc1cccc(C(=O)O)c1	174 to 175 °C
CCc1ccccc1N	-47 to -44 °C
CCOc1ccccc1C(=O)O	20 to 20.7 °C
CC(Oc1ccccc1Cl)C(=O)O (centres undefined)	113 to 114 °C
O=P(c1ccccc1)(c1ccccc1)c1ccccc1	156 °C
Oc1cc2ccccc2cc1O	162 to 164 °C
c1ccc(-c2ccnc3c2ccc2c(-c4ccccc4)ccnc23)cc1	218 to 220 °C

Compound	melting point
O=C(O)c1ccc(CO)cc1	181 to 182 °C
c1ccc2c(c1)Cc1cc3ccccc3cc1-2	208 to 212 °C
Nc1ccccc1I	55 to 58 °C
O=[N+]([O-])c1ccccc1SSc1ccccc1[N+](=O)[O-]	194 to 196 °C
c1c[nH]nn1	23 to 24 °C
COc1cc(NS(=O)(=O)c2ccc(N)cc2)nc(OC)n1	204 °C
Sc1ncc[nH]1	225 to 230 °C
O=C(O)c1cc([N+](=O)[O-])cc([N+](=O)[O-])c1O	170 to 171 °C
CCCCCCC(C)O (centres undefined)	-32 to -31.6 °C
O=C1CCCCCN1	69 to 70 °C
NCCC(=O)O	196 to 200 °C
CCOC(=O)C#CC(=O)OCC	1.5 to 2 °C
CCCC(C)(C)C	-124 °C
ClCCCCl	-100 to -99.5 °C
CCCCCCCCOc1ccc(C(=O)O)cc1	101 to 103 °C
C1CCc2nnnn2CC1	57.5 to 60 °C
Clc1ccccc1C(Cl)(Cl)Cl	29 to 30 °C
O=[N+]([O-])c1cc(Cl)cc(Cl)c1	64 to 65.4 °C
CC1=CC(=O)c2ccccc2C1=O	102 to 107 °C
CCCCCCCCCCCCCCCCCCCCCCCC	51 to 54 °C
C[Si]1(C)N[Si](C)(C)N[Si](C)(C)N[Si](C)(C)N1	96 to 97.5 °C
CC(C)(C)c1ccccc1	-59.5 to -57.8 °C
O=C(O)Cc1cccc2ccccc12	130 to 135 °C
O=C1CCCC(=O)C1	103 to 106 °C

Compound	melting point
COc1cccc(CC(=O)O)c1	70 to 72 °C
C=CC#N	-84 to -83.5 °C
Oc1c(Br)cccc1Br	55 to 56.5 °C
NC(=O)c1ccc(-c2ccccc2)cc1	223 to 228 °C
O=C(O)C=Cc1ccc(Cl)cc1	248 to 249 °C
Nc1ccccc1C(F)(F)F	-34 to -29 °C
O=C1c2c(O)cccc2Cc2cccc(O)c21	179 to 181 °C
C[Si](c1ccccc1)(c1ccccc1)c1ccccc1	67 to 69.5 °C
Cc1ccc(C)c(C(=O)O)c1	132 to 134 °C
FC(F)(F)C(F)(F)C(F)(F)C(F)(F)C(F)(F)C(F)(F)C(F)(F)C(F)(F)F	-25 to -23.2 °C
C1=CCCC1	-135 °C
Cc1ccc(O)c(O)c1	65 to 68 °C
Oc1ccc(Br)cc1Cl	49 to 50.5 °C
Oc1ccccc1-c1ccccc1	56 to 60 °C
FC(C(F)(F)F)C(F)(F)F	-131 to -127 °C
O=S(=O)(Cl)c1ccc(I)cc1	82 to 85 °C
Nc1ccccc1C(=O)O	144 to 147 °C
O=[N+]([O-])c1ccc(Cl)c(Cl)c1Cl	55 to 56 °C
COC(=O)c1cc(Cl)ccc1[N+](=O)[O-]	48.5 to 49 °C
C=CCCCC	-140 °C
